From PubChem BioAssay (NCI) come the findings set out here.

Structures are written as SMILES.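 Values below derive from 48-hour exposures of cells grown in 96-well plates, with endpoints linearly interpolated between the two concentrations bracketing the appropriate inhibition level. TGI: concentration producing complete growth inhibition.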 Bounds are passed on as bounds.

Among the test systems are SNB-75 CNS; A549 NSCLC; SN12C renal; NCI-H226 lung; HS 578T breast; NCI-H23 lung; HL-60(TB) leukemia; NCI/ADR-RES ovarian; OVCAR-5 ovarian; A498 renal; KM12 colon; ACHN renal; UACC-257 melanoma; MCF7 breast; MDA-MB-231 breast; BT-549 breast.
Common to all, as to assay: NCI tumour cell line growth inhibition, 48 h

Take `C#CCOCn1ccc(=O)[nH]c1=O`: the TGI in the experiment with SNB-75 CNS, in the experiment with A549 NSCLC, with SN12C renal, in the experiment on NCI-H226 lung, in the experiment on HS 578T breast and in the experiment with NCI-H23 lung was above 100 µM each time. Also, the TGI in the experiment with HL-60(TB) leukemia, in the experiment on NCI/ADR-RES ovarian, in the experiment with OVCAR-5 ovarian, in the experiment on A498 renal, in the experiment on KM12 colon and in the experiment with ACHN renal was above 100 µM each time. Also, the TGI with UACC-257 melanoma, in the experiment with MCF7 breast and in the experiment on MDA-MB-231 breast was above 100 µM throughout.

Turning to `CCN(CC)CCC1CCCCN1CC(=O)N1c2ccccc2NC(=O)c2ccccc21` (configuration not stated), the TGI in the experiment with SNB-75 CNS was 92.6 µM; in the experiment on A549 NSCLC it was above 100 µM; in the experiment with SN12C renal it was above 100 µM; in the experiment on NCI-H226 lung, above 100 µM; in the experiment with HS 578T breast it was above 100 µM; in the experiment with NCI-H23 lung, above 100 µM. The TGI with HL-60(TB) leukemia, in the experiment on OVCAR-5 ovarian, with A498 renal, in the experiment on KM12 colon, in the experiment with ACHN renal and in the experiment on UACC-257 melanoma was above 100 µM each time. The TGI in the experiment with MCF7 breast and in the experiment on MDA-MB-231 breast was above 100 µM each time.

As for `O=C1NCCCC12CCCNC2=O`, the TGI in the experiment with A549 NSCLC, in the experiment with SN12C renal, with NCI-H226 lung, in the experiment on NCI-H23 lung, in the experiment with HL-60(TB) leukemia and in the experiment on KM12 colon was above 100 µM in each case. The TGI with ACHN renal and in the experiment on UACC-257 melanoma was above 100 µM each time.

`O=C(Cc1ccccc1)NN1C(=O)C(Cl)C1c1ccc([N+](=O)[O-])cc1` (configuration not stated): the TGI in the experiment with SNB-75 CNS, in the experiment with A549 NSCLC, in the experiment on SN12C renal, with NCI-H226 lung, with NCI-H23 lung and with HL-60(TB) leukemia was above 100 µM in each case. Moreover, the TGI in the experiment with OVCAR-5 ovarian, in the experiment on KM12 colon, in the experiment with ACHN renal and with UACC-257 melanoma was above 100 µM throughout.

Consider `COC(=O)C1=C(C(=O)OC)C2C(C)=CC(C)=CN2C(C#N)=C(SC)S1` (configuration not stated), for which the TGI in the experiment on SNB-75 CNS is above 100 µM; in the experiment with A549 NSCLC it was above 100 µM; in the experiment with SN12C renal, 52.6 µM; in the experiment with NCI-H226 lung it was 39.9 µM; in the experiment on NCI-H23 lung, 36.4 µM; in the experiment on HL-60(TB) leukemia, 42.7 µM. The TGI with OVCAR-5 ovarian worked out at 84.7 µM; in the experiment on ACHN renal, 60.5 µM; with UACC-257 melanoma, 64.3 µM.

In the case of `COc1ccc(C(=O)/C=C/c2ccc(OCCSCCCCCCCCCCSCCOc3ccc(/C=C/C(=O)c4ccc(OC)cc4)cc3)cc2)cc1`, the TGI in the experiment on SNB-75 CNS, in the experiment on A549 NSCLC, with SN12C renal, in the experiment on NCI-H226 lung, in the experiment on HS 578T breast and in the experiment with HL-60(TB) leukemia was above 100 µM in each case. Besides, the TGI in the experiment with NCI/ADR-RES ovarian, in the experiment with KM12 colon, in the experiment on ACHN renal, with UACC-257 melanoma, in the experiment on MCF7 breast and in the experiment on MDA-MB-231 breast was above 100 µM throughout.

For `Nc1ccc(C(=O)NN2C(=O)C(Cl)C2c2cc(Br)ccc2O)cc1` (configuration not stated), the TGI in the experiment with SNB-75 CNS was above 100 µM; in the experiment on A549 NSCLC it was above 100 µM; with SN12C renal, above 100 µM; in the experiment with NCI-H226 lung, above 100 µM; in the experiment with NCI-H23 lung, above 100 µM; in the experiment on HL-60(TB) leukemia it was 78.8 µM. The TGI in the experiment with OVCAR-5 ovarian, in the experiment on A498 renal, with KM12 colon, with ACHN renal and with UACC-257 melanoma was above 100 µM each time.

For the compound `COc1cc(NCc2ccc3nc(-c4ccccc4)c(N)nc3c2)cc(OC)c1OC`, the TGI in the experiment with SNB-75 CNS was 73.5 µM; in the experiment with A549 NSCLC it was 83.8 µM; in the experiment with SN12C renal, above 100 µM; with NCI-H226 lung, above 100 µM; with NCI-H23 lung, 62.3 µM; with HL-60(TB) leukemia it was 49.7 µM. Also, the TGI with NCI/ADR-RES ovarian is 57.8 µM; in the experiment on OVCAR-5 ovarian, above 100 µM; in the experiment on A498 renal, 75.3 µM; with KM12 colon, 54.5 µM; in the experiment on ACHN renal it was above 100 µM; with UACC-257 melanoma, 51.4 µM. The TGI was 55.9 µM in the experiment on MCF7 breast and above 100 µM in the experiment with MDA-MB-231 breast.

For `COP(=O)(OC)C(=NCc1ccccc1)NNc1ccc([N+](=O)[O-])cc1`, the TGI in the experiment on SNB-75 CNS is 37.6 µM; with A549 NSCLC, above 100 µM; with NCI-H23 lung, 61.4 µM; in the experiment with HL-60(TB) leukemia, 46 µM; in the experiment on OVCAR-5 ovarian it was above 100 µM; in the experiment on KM12 colon, above 100 µM. Besides, the TGI was above 100 µM in the experiment on ACHN renal and 51.1 µM in the experiment with UACC-257 melanoma.

In the case of `COc1c(OC)c(N)c2cc(C)c(=O)c(C)cc2c1N`, the TGI in the experiment on SNB-75 CNS, in the experiment on A549 NSCLC, with SN12C renal, with NCI-H23 lung, with HL-60(TB) leukemia and with OVCAR-5 ovarian was above 100 µM each time. Also, the TGI with A498 renal, with KM12 colon, in the experiment on ACHN renal and in the experiment on UACC-257 melanoma was above 100 µM in each case.

As for `C=C[C@H]1CC[C@H]2[C@@H]3CC=C4C[C@@H](OC5OCC(O)C(O)C5O)CC[C@]4(C)[C@H]3CC[C@]12C` (some centres not stated), the TGI is 27.5 µM with A549 NSCLC; 33.2 µM with SN12C renal; 34.6 µM in the experiment on NCI-H226 lung; 48.3 µM with HS 578T breast; 66.3 µM in the experiment on NCI-H23 lung; above 100 µM in the experiment with HL-60(TB) leukemia. In addition, the TGI in the experiment on NCI/ADR-RES ovarian was 38.1 µM; in the experiment on OVCAR-5 ovarian, 28.1 µM; in the experiment on A498 renal it was 21 µM; in the experiment on KM12 colon it was 31.8 µM; in the experiment with ACHN renal, 10.8 µM; in the experiment on UACC-257 melanoma, above 100 µM. In addition, the TGI is above 100 µM in the experiment with MCF7 breast and 39.6 µM in the experiment with MDA-MB-231 breast.

In the case of `O=C(c1ccco1)n1c2ccc(Br)cc2c2nc3ccccc3nc21`, the TGI with SNB-75 CNS was 58.6 µM; in the experiment on SN12C renal, above 100 µM; with NCI-H226 lung, above 100 µM; in the experiment on NCI-H23 lung, above 100 µM; with HL-60(TB) leukemia it was above 100 µM; in the experiment on NCI/ADR-RES ovarian, above 100 µM. In addition, the TGI in the experiment with OVCAR-5 ovarian was above 100 µM; with KM12 colon, 97.6 µM; with BT-549 breast it was above 100 µM; in the experiment with ACHN renal, above 100 µM; in the experiment on UACC-257 melanoma it was above 100 µM; in the experiment on MCF7 breast, above 100 µM.
